Read-outs that look alike come from different tables or passages of the source.
Tests used:
MCF7 cells [1] = experiment: 3D-mammosphere formation assay, MCF7; format: cell-based, Human
Text: (§1) In order to assess the effects of MTDR on CSC propagation, the mammosphere assay was used as a functional readout of “stemness” and 3D anchorage-independent growth. As CSCs are highly-resistant to many types of cell stress, they can undergo anchorage-independent propagation, under low-attachment conditions. […] These “mammospheres” are highly enriched in CSCs and progenitor-like cells, and highly resemble the morula stage of embryonic development, a solid ball of cells without a hollow lumen. Under these culture conditions of non-attachment, the majority of epithelioid cancer cells die, via an unusual form of apoptosis, known as anoikis.
(§2) As a consequence, the growth of 3D spheroids provides functional culture conditions to select for a population of epithelioid CSCs, with EMT properties. As such this provides an ideal assay for identifying small molecules that can target the anchorage-independent growth of CSCs.
(§3) 3D-Mammosphere Formation Assay: A single cell suspension was prepared using enzymatic (1× Trypsin-EDTA, Sigma Aldrich, cat. #T3924), and manual disaggregation (25 gauge needle). Five thousand cells were plated with in mammosphere medium (DMEM-F12/B27/20 ng/ml EGF/PenStrep), under non-adherent conditions, in six wells plates coated with 2-hydroxyethylmethacrylate (poly-HEMA, Sigma, cat. #P3932). […]

[2] = in vivo; cited from earlier work
MCF7 cells [3] = experiment: Metabolic flux analysis (Seahorse XFe96, OCR/ECAR), MCF7; format: cell-based, Human; conditions: for ECAR levels / basal and maximal OCR, ATP production: adherent MCF7; for basal and maximal OCR, ATP production: 16 hours, versus vehicle-alone control
Method: (§4) FIGS. 4A-4D show the metabolic flux analysis results in MCF7 cells, FIGS. 5A-5D show the metabolic flux analysis results in MDA-MB-231 cells, and FIGS. 6A-6D show the metabolic flux analysis results in MDA-MB-468 cells.
(§5) In addition to metabolic flux analysis, glycolytic function was analyzed at different concentrations of MTDR. This included extracellular acidification rate (ECAR) measurements, glycolysis, glycolytic capacity, and glycolytic reserve. FIGS. 7A-7D show the results of glycolytic function in MCF7 cells, including ECAR, glycolysis, glycolytic capacity, and glycolytic reserve, respectively. FIGS. 8A-8D show the results of glycolytic function in MDA-MB-231 cells, including ECAR, glycolysis, glycolytic capacity, and glycolytic reserve, respectively. FIGS. 9A-9D show the results of glycolytic function in MDA-MB-468 cells, including ECAR, glycolysis, glycolytic capacity, and glycolytic reserve, respectively.
To examine the effects of HITC and DDI on mitochondrial respiration and aerobic glycolysis, adherent MCF7 were treated with each compound, and then OCR and ECAR were measured. […] After treatment, the mitochondrial oxygen consumption rate (OCR) was measured using the Seahorse XFe96 analyzer. Data is expressed as percentage of OCR versus control. All data was normalized for cell number. Statistical analysis was conducted using one-way ANOVA.
(§6) Metabolic Flux Analysis: Extracellular acidification rates and oxygen consumption rates were analyzed using the Seahorse XFe96 analyzer (Agilent/Seahorse Bioscience, USA). Cells were maintained in DMEM supplemented with 10% FBS (fetal bovine serum), 2 mM GlutaMAX, and 1% Pen-Strep. Forty-thousand breast cancer cells were seeded per well, into XFe96-well cell culture plates, and incubated at 37° C. in a 5% CO2 humidified atmosphere. After 24-48 hours, MCF7 cells were washed in pre-warmed XF assay media, as previously described. ECAR and OCR measurements were normalized for cell protein content, by the SRB colorimetric assay. Data sets were analyzed using XFe96 software and Excel software.

MDA-MB-231 cells [4] = conditions: MDA-MB-231 mammosphere formation
Text: as §1, §2, §3

MDA-MB-468 cells [5] = conditions: read-out: IC-50, 3D sphere formation
Text: as §1, §2, §3

MDA-MB-231 cells [6] = conditions: MDA-MB-231 monolayer
Method: as §4, §5, §6

MDA-MB-468 cells [7] = conditions: MDA-MB-468 monolayer
Method: as §4, §5, §6

MCF7 cells [8] = conditions: read-out: IC-50, cell viability; MCF7 monolayer; Hoechst 33342; 1 nM to 1 μM; FIG. 10
Method: (§7) A Hoechst-based viability assay was used to characterize the selectivity of MTDR for the preferential targeting of cancer cells. Briefly, MCF7, MDA-MB-231 and MDA-MB-468 cell monolayers were treated with MTDR, at concentrations ranging from 1 nM to 1 μM, for a period of one day. Cell viability was assessed using Hoechst 33342, a nuclear dye that stains DNA in live cells. The viability of normal human fibroblasts (hTERT-BJ1) treated with MTDR was also assessed in parallel. Quantitation was performed with a plate-reader.
(§8) MCF7, MDA-MB-231 and MDA-MB-468 cell monolayers were treated with MTDR for a period of 72 hours, and viability was assessed using Hoechst 33342, a nuclear dye that stains DNA in live cells. Effects of MTDR on the viability in normal human fibroblasts (hTERT-BJ1) were assessed in parallel.

MDA-MB-231 cells [9] = conditions: read-out: IC-50, cell viability; MDA-MB-231 monolayer; Hoechst 33342; 1 nM to 1 μM; FIG. 10
Method: as §7, §8

MDA-MB-468 cells [10] = conditions: read-out: IC-50, cell viability; MDA-MB-468 monolayer; Hoechst 33342; 1 nM to 1 μM; FIG. 10
Method: as §7, §8

[11] = system: normal human fibroblasts (hTERT-BJ1); conditions: for IC50: hTERT-BJ1, Hoechst 33342
Method: as §7, §8

## CCCN1/C(=C/C=C2\CCCC(/C=C/C3=[N+](CCC)c4ccccc4C3(C)C)=C2Cl)C(C)(C)c2ccccc21 [IR-780]
MCF7 cells [1]; non-adherent MCF7, 1, 50, 100, 500, 1000 nM, five days
  concentrations with significant inhibition of CSC propagation (3D-mammosphere formation): not effective
[2]
  half-life in serum: minutes to hour

## CCN1/C(=C/C=C/C=C/c2ccc3ccccc3[n+]2CC)C=Cc2ccccc21 [DDI]
MCF7 cells [3]
  ECAR levels: did not affect
  basal and maximal OCR, ATP production: did not affect

## CN1C(=CC=CC=CC2=[N+](Cc3ccc(CCl)cc3)c3ccccc3C2(C)C)C(C)(C)c2ccccc21.[Cl-] [MTDR, 1-{4-[(chloromethyl)phenyl]methyl}-3,3-dimethyl-2-[5-(1,3,3-trimethyl-1,3-dihydro-2H-indol-2-ylidene)penta-1,3-dien-1-yl]-3H-indolium chloride]
MCF7 cells [1]; MCF7, MTDR 1 nM to 1,000 nM, 5 days, read-out: IC-50, 3D anchorage-independent growth (mammosphere formation)
  IC50: < 100 nM
MDA-MB-231 cells [4]
  concentrations inhibiting anchorage-independent growth: above 100 nM
MDA-MB-468 cells [5]
  IC50: ~50 nM
MCF7 cells [3]; MCF7 monolayer, OCR
  concentration from which near complete inhibition of mitochondrial function and ATP production: ≥ 500 nM
MCF7 cells [3]; MCF7 monolayer, up to 1 μM
  effect on glycolysis (ECAR): no effect on glycolysis
MDA-MB-231 cells [6]; OCR
  concentration from which near complete inhibition of mitochondrial function and ATP production: ≥ 500 nM
MDA-MB-231 cells [6]; no significant effect up to 100 nM
  concentration from which mild-to-moderate inhibition of glycolysis: ≥ 500 nM
MDA-MB-468 cells [7]; OCR
  concentration from which near complete inhibition of mitochondrial function and ATP production: ≥ 500 nM
MDA-MB-468 cells [7]; up to 1 μM
  effect on glycolysis (ECAR): no effect on glycolysis
MCF7 cells [8]
  IC50: 90.7 nM
MDA-MB-231 cells [9]
  IC50: 399 nM
MDA-MB-468 cells [10]
  IC50: 432 nM
[11]; read-out: IC-50, cell viability, 1 nM to 1 μM, FIG. 10
  IC50: 468 nM
[11]; read-out: IC-50, normal cell viability, 72 hours
  IC50: 1000 nM
[11]; viability, 72 hours
  potency and selectivity for breast cancer cells relative to normal fibroblasts: 10 times

## CN1\C(=C/C=C/C=C/C=C/C2=[N+](C)c3ccccc3C2(C)C)C(C)(C)c2ccccc21 [HITC]
MCF7 cells [3]
  ECAR levels: increased significantly, at 500 and 1000 nM
  basal and maximal OCR, ATP production: significantly inhibited
